Experimental data reported in US11833125B2, “Pharmaceutical composition for controlled release of treprostinil” (Pharmosa Biopharm Inc., priority 2018, dated 2023).

Columns and labels:
[1] = In vivo pharmacokinetics study, intra-tracheal administration, plasma treprostinil by LC-MS/MS; parameters: species or system Sprague-Dawley rats; conditions: rat, FIGS. 1A and 1B
Procedure: In this in vivo PK study, Sprague-Dawley rats (purchased from BioLASCO Taiwan Co., Ltd.) were anaesthetized with isoflurane, and positioned securely on its back to an arched platform in a dorsal position at a 45° to 50° plane using a ribbon hooked around upper incisors. A microspray aerosol tip (Microsprayer, PennCentury, Philadelphia, USA) was inserted to the tracheal bifurcation of each rat, and a test sample (i.e., compositions in Table 2 or free treprostinil solution) was administered intra-tracheally to each rat at a given dose using a high-pressure syringe that is attached to the microspray aerosol device. […] The blood sample was then centrifuged at approximately 2500×g for 15 min and at 4±2° C. within 1 hour of collection, so as to separate the plasma from the blood cells. Approximately 0.1 mL of the obtained plasma sample from each rat was added into a new storage tube and stored in a freezer with a temperature maintained at −70±2° C. […] The obtained supernatant (150 μL) was mixed with an equal volume of H2O and analyzed by liquid chromatography-tandem mass spectrometry (LC-MS/MS) to determine the treprostinil concentration in the plasma sample of the rat. […]

Sprague Dawley rats = assay: Safety evaluation of inhaled composition: cage-side observation of upper airway irritation; assay type: in vivo; conditions: nebulized, nose-only inhalation, 6 μg/kg/day for 10 days; frequency of clinical signs in 10 inhalations; n = 3
Procedure: In this study, 8 male Sprague Dawley rats (purchased from BioLASCO Taiwan Co., Ltd.) were divided into 3 groups: control group (n=2), comparative group (n=3) and experimental group (n=3). The experimental group rats and the comparative group rats were placed in restraining tubes and given nebulized treprostinil liposomal composition LB11500 from Example 2 and free treprostinil solution, respectively, at a dosage of 6 μg/kg/day for 10 days, via a 20-port nose-only Buxco inhalation exposure system (DSI, USA). An air flow carried aerosol generated by mesh vibrating nebulizer was provided to the system tower where the rats are encased in, at a rate of 10 L/min. The control group rats received no exposure to the drug.
During the study, cage-side clinical observation was performed on each rat by a single observer to record incidences of upper airway irritation due to the inhaled nebulized treprostinil liposomal composition or free treprostinil solution. Manifestations of upper airway irritation include tension, sneezing, erythematous pinnae, tremor, hunched posture, piloerection, tachypnea and labored breathing, hyperpnea and epistaxis.

- time at which plasma treprostinil concentration peaked [1]: ≤ 5 min
Compound: CCCCC[C@H](O)CC[C@@H]1[C@H]2Cc3cccc(OCC(=O)O)c3C[C@H]2C[C@H]1O [free treprostinil, treprostinil]
- Incidences of upper airway irritation (Sprague Dawley rats): 17
